Test results reported in patent US20240246964A1 (Arbutus Biopharma Corporation, priority 2021, published 2024).

Columns and labels:
[1] = target: human PD-L1 (Homo sapiens (Human), UniProt Q9NZQ7); experiment: T cell activation luciferase reporter cell culture system (T Cell Activation Assay); format: cell-based; details: luciferase reporter assay; PD-L1 aAPC/CHO-K1 cells with PD-1 effector Jurkat T cells
[2] = target: PD-L1 His protein / PD-1 Fc protein (Homo sapiens (Human), UniProt Q9NZQ7); experiment: HTRF Assay (PD-1/PD-L1 interaction); format: binding; details: PD-L1 His 6 nM, PD-1 Fc 6 nM
Chain of PD-L1 His protein / PD-1 Fc protein (Q9NZQ7 19-238): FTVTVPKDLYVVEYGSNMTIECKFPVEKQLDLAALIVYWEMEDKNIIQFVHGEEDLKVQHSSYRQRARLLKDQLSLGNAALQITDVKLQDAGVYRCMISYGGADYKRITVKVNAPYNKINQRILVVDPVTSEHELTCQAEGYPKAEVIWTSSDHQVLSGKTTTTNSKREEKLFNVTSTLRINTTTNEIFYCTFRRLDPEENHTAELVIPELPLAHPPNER

Chain of human PD-L1 (Q9NZQ7 19-290): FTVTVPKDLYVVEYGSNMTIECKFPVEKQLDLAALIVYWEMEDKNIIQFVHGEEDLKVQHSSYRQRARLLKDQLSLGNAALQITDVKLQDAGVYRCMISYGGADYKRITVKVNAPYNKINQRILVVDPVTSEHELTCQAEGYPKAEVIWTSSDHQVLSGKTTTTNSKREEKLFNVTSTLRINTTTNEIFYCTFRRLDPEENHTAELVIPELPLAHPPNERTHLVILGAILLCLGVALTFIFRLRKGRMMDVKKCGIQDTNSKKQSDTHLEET

| Compound | EC50 [1] | IC50 [2] |
| --- | --- | --- |
| COc1cc(-c2nccc(-c3cccc(-c4ccc([C@H](C)NC5CCN(C(C)=O)CC5)c(OC)n4)c3Cl)c2Cl)ccc1[C@H](C)NC1CCN(C(C)=O)CC1 [Example 599, 1-(4-(((S)-1-(6-(3-(2-(4-((S)-1-((1-Acetylpiperidin-4-yl)amino)ethyl)-3-methoxyphenyl)-3-chloropyridin-4-yl)-2-chlorophenyl)-2-methoxypyridin-3-yl)ethyl)amino)piperidin-1-yl)ethan-1-one] | ≥ 10000 nM | 1.01 nM |
| COCC(=O)N1CCC(NCc2ccc(-c3nccc(-c4cccc(-c5ccc(CNC6CCN(C(=O)COC)CC6)c(OC)n5)c4C(F)(F)F)c3Cl)cc2OC)CC1 [Example 602, 1-(4-(((6-(3-(3-Chloro-2-(3-methoxy-4-(((1-(2-methoxyacetyl)piperidin-4-yl)amino)methyl)phenyl)pyridin-4-yl)-2-(trifluoromethyl)phenyl)-2-methoxypyridin-3-yl)methyl)amino)piperidin-1-yl)-2-methoxyethan-1-one] | ≥ 10000 nM | 41.3 nM |
| COc1cc(-c2nccc(-c3cccc(-c4ccc(CNC[C@@H]5CCC(=O)N5)c(OC)n4)c3C(F)(F)F)c2Cl)ccc1CNC[C@@H]1CCC(=O)N1 [Example 610, (S)-5-((((6-(3-(3-Chloro-2-(3-methoxy-4-(((((S)-5-oxopyrrolidin-2-yl)methyl)amino)methyl)phenyl)pyridin-4-yl)-2-(trifluoromethyl)phenyl)-2-methoxypyridin-3-yl)methyl)amino)methyl)pyrrolidin-2-one] | 2110 nM | 1.52 nM |
| COc1nc(-c2cccc(-c3ccnc(-c4cc(OC)c5nc(CN6CC(C)(O)C6)nn5c4)c3Cl)c2Cl)ccc1CNC1CCN(C(C)=O)CC1 [Example 637, 1-(4-(((6-(2-chloro-3-(3-chloro-2-(2-((3-hydroxy-3-methylazetidin-1-yl)methyl)-8-methoxy-[1,2,4]triazolo[1,5-a]pyridin-6-yl)pyridin-4-yl)phenyl)-2-methoxypyridin-3-yl)methyl)amino)piperidin-1-yl)ethan-1-one] | 116 nM | 0.29 nM |
| COc1nc(-c2cccc(-c3ccnc(-c4cc(OC)c5nc(CNC[C@@H](C)O)nn5c4)c3Cl)c2Cl)ccc1CNC1CCN(C(C)=O)CC1 [Example 638, (R)-1-(4-(((6-(2-Chloro-3-(3-chloro-2-(2-(((2-hydroxypropyl)amino)methyl)-8-methoxy-[1,2,4]triazolo[1,5-a]pyridin-6-yl)pyridin-4-yl)phenyl)-2-methoxypyridin-3-yl)methyl)amino)piperidin-1-yl)ethan-1-one] | 94.9 nM | 0.2 nM |
| COc1cc(-c2ncnc(-c3cccc(-c4ccc(CNCc5cnco5)c(OC)n4)c3Cl)c2Cl)ccc1CNCc1cnco1 [Example 643, 1-(6-(2-Chloro-3-(5-chloro-6-(3-methoxy-4-(((oxazol-5-ylmethyl)amino)methyl)phenyl)pyrimidin-4-yl)phenyl)-2-methoxypyridin-3-yl)-N-(oxazol-5-ylmethyl)methanamine] | 1530 nM | 4.17 nM |
| COc1cc(-c2nccc(-c3cccc(NC(=O)c4ccc(CNC5CCN(C(C)=O)CC5)cn4)c3C)c2Cl)ccc1CNC1CCN(C(C)=O)CC1 [Example 645, 5-(((1-Acetylpiperidin-4-yl)amino)methyl)-N-(3-(2-(4-(((1-acetylpiperidin-4-yl)amino)methyl)-3-methoxyphenyl)-3-chloropyridin-4-yl)-2-methylphenyl)picolinamide] | 1410 nM | 0.44 nM |
| COc1cc(-c2nccc(-c3cccc(NC(=O)c4ccc(CNC5CCOCC5)cn4)c3C)c2Cl)ccc1CNC1CCOCC1 [Example 646, N-(3-(3-Chloro-2-(3-methoxy-4-(((tetrahydro-2H-pyran-4-yl)amino)methyl)phenyl)pyridin-4-yl)-2-methylphenyl)-5-(((tetrahydro-2H-pyran-4-yl)amino)methyl)picolinamide] | 2710 nM | 0.48 nM |
| COc1cc(-c2nccc(-c3cccc(NC(=O)c4ccc(CNCCO)cn4)c3C)c2Cl)ccc1CNCCO [Example 648, N-(3-(3-Chloro-2-(4-(((2-hydroxyethyl)amino)methyl)-3-methoxyphenyl)pyridin-4-yl)-2-methylphenyl)-5-(((2-hydroxyethyl)amino)methyl)picolinamide] | 142 nM | 0.05 nM |
| COc1cc(-c2nccc(-c3cccc(NC(=O)c4ccc(CNC[C@H](C)O)cn4)c3C)c2Cl)ccc1CNC[C@H](C)O [Example 650, N-(3-(3-Chloro-2-(4-((((S)-2-hydroxypropyl)amino)methyl)-3-methoxyphenyl)pyridin-4-yl)-2-methylphenyl)-5-((((S)-2-hydroxypropyl)amino)methyl)picolinamide] | 144 nM | 0.1 nM |
| COc1cc(-c2nccc(-c3cccc(-c4ccc(CNC5CC6(C5)CN(C(C)=O)C6)c(OC)n4)c3C(F)(F)F)c2Cl)ccc1CNC1CC2(C1)CN(C(C)=O)C2 (stereo not drawn) [Example 651, 1-(6-(((6-(3-(2-(4-(((2-Acetyl-2-azaspiro[3.3]heptan-6-yl)amino)methyl)-3-methoxyphenyl)-3-chloropyridin-4-yl)-2-(trifluoromethyl)phenyl)-2-methoxypyridin-3-yl)methyl)amino)-2-azaspiro[3.3]heptan-2-yl)ethan-1-one] | ≥ 10000 nM | 4.06 nM |
| COc1cc(-c2nccc(-c3cccc(-c4ccc(CNC5CCOCC5)c(OC)n4)c3C#N)c2Cl)ccc1CNC1CCOCC1 [Example 652, 2-(3-Chloro-2-(3-methoxy-4-(((tetrahydro-2H-pyran-4-yl)amino)methyl)phenyl)pyridin-4-yl)-6-(6-methoxy-5-(((tetrahydro-2H-pyran-4-yl)amino)methyl)pyridin-2-yl)benzonitrile] | 227 nM | 0.07 nM |
| COc1cc(-c2nccc(-c3cccc(-c4ccc(CN5CCN(C(C)=O)CC5)c(OC)n4)c3Cl)c2Cl)ccc1CN1CCN(C(C)=O)CC1 [Example 655, 1-(4-((6-(3-(2-(4-((4-Acetylpiperazin-1-yl)methyl)-3-methoxyphenyl)-3-chloropyridin-4-yl)-2-chlorophenyl)-2-methoxypyridin-3-yl)methyl)piperazin-1-yl)ethan-1-one] | ≥ 10000 nM | 9.58 nM |
| COc1cc(-c2nccc(-c3cccc(NC(=O)c4cn(C)c(=O)n(C)c4=O)c3Cl)c2Cl)ccc1CNC1CCN(C(C)=O)CC1 [Example 656, N-(3-(2-(4-(((1-Acetylpiperidin-4-yl)amino)methyl)-3-methoxyphenyl)-3-chloropyridin-4-yl)-2-chlorophenyl)-1,3-dimethyl-2,4-dioxo-1,2,3,4-tetrahydropyrimidine-5-carboxamide] | 589 nM | 0.16 nM |
| COc1cc(-c2nccc(-c3cccc(NC(=O)c4cn(C)c(=O)n(C)c4=O)c3Cl)c2Cl)ccc1CNC[C@@H]1CCC(=O)N1 [Example 657, (S)—N-(2-Chloro-3-(3-chloro-2-(3-methoxy-4-((((5-oxopyrrolidin-2-yl)methyl)amino)methyl)phenyl)pyridin-4-yl)phenyl)-1,3-dimethyl-2,4-dioxo-1,2,3,4-tetrahydropyrimidine-5-carboxamide] | 33.3 nM | 0.14 nM |
